Data published in US9776972B2, “Pyrazole derivatives as arginine methyltransferase inhibitors and uses thereof” (priority 2013, dated 2017).

Assays:
[1] = system: mono-methyl arginine in RKO cells; experiment: RKO Methylation Assay, In Cell Western (ICW) for mono-methyl arginine and DNA content; type: cell-based; settings: Homo sapiens, RKO, 72 h, RKO cells, 72 hours, mono-methyl arginine, percent activation; single experiment or average of multiple experiments; read-out: EC30 (In Cell Western data, Numerical)
Text: RKO adherent cells were purchased from ATCC (American Type Culture Collection), Manassas, Va., USA. DMEM/Glutamax medium, penicillin-streptomycin, heat inactivated fetal bovine serum, 0.05% trypsin and D-PBS were purchased from Life Technologies, Grand Island, N.Y., USA. Odyssey blocking buffer, 800CW goat anti-rabbit IgG (H+L) antibody, and Licor Odyssey infrared scanner were purchased from Licor Biosciences, Lincoln, Nebr., USA. Mono-methyl arginine antibody was purchased from Cell Signaling Technology, Danvers, Mass., USA. Methanol was purchased from VWR, Franklin, Mass., USA. 10% Tween 20 was purchased from KPL, Inc., Gaithersburg, Md., USA. DRAQ5 was purchased from Biostatus Limited, Leicestershire, UK.
RKO adherent cells were maintained in growth medium (DMEM/Glutamax medium supplemented with 10% v/v heat inactivated fetal bovine serum and 100 units/mL penicillin-streptomycin) and cultured at 37° C. under 5% CO2.
Cell Treatment, in Cell Western (ICW) for Detection of Mono-Methyl Arginine and DNA Content.
RKO cells were seeded in assay medium at a concentration of 20,000 cells per mL to a poly-D-lysine coated 384 well culture plate (BD Biosciences 356697) with 50 μL per well. Compound (100 nL) from a 96-well source plate was added directly to 384 well cell plate. Plates were incubated at 37° C., 5% CO2 for 72 hours. After three days of incubation, plates were brought to room temperature outside of the incubator for ten minutes and blotted on paper towels to remove cell media. 50 μL of ice cold 100% methanol was added directly to each well and incubated for 30 min at room temperature. After 30 min, plates were transferred to a Biotek EL406 plate washer and washed 2 times with 100 μL per well of wash buffer (1×PBS). Next 60 μL per well of Odyssey blocking buffer (Odyssey Buffer with 0.1% Tween 20 (v/v)) were added to each plate and incubated 1 hour at room temperature. Blocking buffer was removed and 20 μL per well of primary antibody was added (mono-methyl arginine diluted 1:200 in Odyssey buffer with 0.1% Tween 20 (v/v)) and plates were incubated overnight (16 hours) at 4° C. Plates were washed 5 times with 100 μL per well of wash buffer. Next 20 μL per well of secondary antibody was added (1:200 800CW goat anti-rabbit IgG (H+L) antibody, 1:1000 DRAQ5 (Biostatus limited) in Odyssey buffer with 0.1% Tween 20 (v/v)) and incubated for 1 hour at room temperature. The plates were washed 5 times with 100 μL per well wash buffer then 2 times with 100 μL per well of water. Plates were allowed to dry at room temperature then imaged on the Licor Odyssey machine which measures integrated intensity at 700 nm and 800 nm wavelengths. Both 700 and 800 channels were scanned.
First, the ratio for each well was determined by:
Each plate included fourteen control wells of DMSO only treatment (minimum activation) as well as fourteen control wells for maximum activation treated with 20 μM of a reference compound. The average of the ratio values for each control type was calculated and used to determine the percent activation for each test well in the plate. Reference compound was serially diluted three-fold in DMSO for a total of nine test concentrations, beginning at 20 μM. Percent activation was determined and EC30 curves were generated using triplicate wells per concentration of compound.

human PRMT3 = human PRMT3 (Homo sapiens, UniProt O60678); experiment: PRMT3 Biochemical Assay (3H-SAM Flashplate, peptide substrate); settings: single experiment or average of multiple experiments
Chain of human PRMT3 (O60678 with tags, fused parts or gaps): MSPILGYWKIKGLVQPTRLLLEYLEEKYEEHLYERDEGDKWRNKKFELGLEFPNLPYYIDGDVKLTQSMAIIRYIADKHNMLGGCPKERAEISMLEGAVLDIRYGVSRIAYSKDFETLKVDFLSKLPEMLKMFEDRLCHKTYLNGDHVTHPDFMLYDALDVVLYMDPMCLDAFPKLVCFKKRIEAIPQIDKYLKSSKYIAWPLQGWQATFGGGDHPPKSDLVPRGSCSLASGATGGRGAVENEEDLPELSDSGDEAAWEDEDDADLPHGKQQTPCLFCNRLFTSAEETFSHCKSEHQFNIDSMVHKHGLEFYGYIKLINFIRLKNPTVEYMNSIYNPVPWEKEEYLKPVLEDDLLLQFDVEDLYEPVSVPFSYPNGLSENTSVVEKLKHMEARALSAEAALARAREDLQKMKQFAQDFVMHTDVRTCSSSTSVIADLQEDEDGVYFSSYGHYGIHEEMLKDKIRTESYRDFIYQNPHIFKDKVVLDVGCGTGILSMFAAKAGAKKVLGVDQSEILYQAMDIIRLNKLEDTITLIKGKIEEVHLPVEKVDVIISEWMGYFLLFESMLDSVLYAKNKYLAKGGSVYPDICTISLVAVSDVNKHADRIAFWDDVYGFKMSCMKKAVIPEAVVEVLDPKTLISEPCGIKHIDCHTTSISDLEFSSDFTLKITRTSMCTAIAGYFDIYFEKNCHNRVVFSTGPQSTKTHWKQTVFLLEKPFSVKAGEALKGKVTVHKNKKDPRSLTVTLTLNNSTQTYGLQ
Text: S-adenosylmethionine (SAM), S-adenosylhomocysteine (SAH), bicine, Tween20, dimethylsulfoxide (DMSO), bovine skin gelatin (BSG), isopropyl-β-D-thiogalactopyranoside (IPTG), and Tris(2-carboxyethyl)phosphine hydrochloride solution (TCEP) were purchased from Sigma-Aldrich at the highest level of purity possible. ^3H-SAM was purchase from American Radiolabeled Chemicals with a specific activity of 80 Ci/mmol. 384-well streptavidin Flashplates were purchased from PerkinElmer.
Peptide containing the classic RMT substrate motif was synthesized with an N-terminal linker-affinity tag motif and a C-terminal amide cap by 21st Century Biochemicals. The peptide was purified by high-performance liquid chromatography (HPLC) to greater than 95% purity and confirmed by liquid chromatography mass spectrometry (LC-MS). The sequence was Biot-Ahx-[…]-amide (SEQ ID NO.:11).
Full-length human PRMT3 (NM_005788.3) isoform 1 transcript clone was amplified from an HEK 293 cDNA library and subcloned into pGEX-KG (GE Life Sciences). The resulting construct encodes an N-terminal GST tag and a thrombin cleavage sequence ([…] […] […] […]) (SEQ ID NO.: 12) fused directly to Cys 2 of PRMT3.
E. coli (BL21(DE3) Gold, Stratagene) made competent by the CaCl2 method were transformed with the PRMT3 construct and ampicillin selection. Protein over-expression was accomplished by growing the PRMT3 expressing E. coli clone and inducing expression with 0.3 mM IPTG at 16° C. The culture was grown for 12 hours, harvested by centrifugation, and stored at −80° C. for purification.
GST-tagged PRMT3 was eluted with 50 mM Tris, 2 mM glutathione, pH 7.1 and 50 mM Tris, 20 mM glutathione, pH 7.1. Pooled fractions were dialysed in 20 mM Tris, 50 mM NaCl, 5% glycerol, 1 mM EDTA, 1 mM DTT, pH7.5 (Buffer B) and applied to a Q Sepharose Fast Flow column. GST-tagged PRMT3 was eluted by 500 mM NaCl in buffer B. Pooled fractions were dialyzed in 25 mM phosphate buffer, 100 mM NaCl, 5% glycerol, 2 mM DTT, pH 6.8 (Buffer C) and loaded on to a ceramic hydroxyapatite column. GST-tagged PRMT3 eluted with 25-400 mM phosphate in buffer C. Protein was concentrated and buffer was exchanged to 20 mM Tris, 150 mM NaCl, 5% glycerol, 5 mM β-mercaptoethanol, pH7.8 by ultrafiltration. The purity of recovered protein was 70%.
General Procedure for PRMT3 Enzyme Assays on Peptide Substrates.
The assays were all performed in a buffer consisting of 20 mM Bicine (pH=7.6), 1 mM TCEP, 0.005% BSG, and 0.002% Tween 20, prepared on the day of use. Compounds in 100% DMSO (1 ul) were spotted into a polypropylene 384-well V-bottom plates (Greiner) using a Platemate Plus outfitted with a 384-channel head (Thermo Scientific). DMSO (1 ul) was added to Columns 11, 12, 23, 24, rows A-H for the maximum signal control and 1 ul of SAH, a known product and inhibitor of PRMT3, was added to columns 11, 12, 23, 24, rows I-P for the minimum signal control. A cocktail (40 ul) containing the PRMT3 enzyme was added by Multidrop Combi (Thermo-Fisher). The compounds were allowed to incubate with PRMT3 for 30 min at room temperature, then a cocktail (10 ul) containing SAM and peptide was added to initiate the reaction (final volume=51 ul). The final concentrations of the components were as follows: PRMT3 was 0.5 nM, ^3H-SAM was 100 nM, non-radiolabeled SAM was 1.8 uM, peptide was 330 nM, SAH in the minimum signal control wells was 1 mM, and the DMSO concentration was 2%. The assays were stopped by the addition of potassium chloride (10 ul) to a final concentration of 100 mM. 50 ul of the reaction in the 384-well polypropylene plate was then transferred to a 384-well Flashplate and the biotinylated peptides were allowed to bind to the streptavidin surface for at least 1 hour before being washed once with 0.1% Tween20 in a Biotek ELx405 plate washer. […]

CC(C)Cc1ccc(-c2n[nH]cc2CN(C)CCN)cc1 [Compound 165]
EC30 [1]: 660 nM | IC50 (human PRMT3): 1730 nM
